How the values were obtained:
α-glucosidase enzyme = α-glucosidase enzyme (Saccharomyces cerevisiae, UniProt P53341); type: biochemical
Procedure: To find out the α-glucosidase inhibition, kinetic studies were carried out using different concentrations of the inhibitors (0.0624, 0.3, 0.125, 0.4 mM) and different concentrations of substrate inhibitor (p-nitrophenol R-D maltoside NMP). Samples of 0.1, 0.2, 0.4, 0.8, and 1.0 mM (0.2 mg/mL) concentration were prepared in de-ionized water with the enzyme. PIPES buffer was used to adjust the pH of the solution. This solution was incubated for 30 min at 25 °C and the absorbance was recorded on an ELISA reader in 96-well plates. Kinetic parameters like Vmax, AICs, Km, and R2 were calculated using sigma plot enzyme kinetic software.

α-glucosidase enzyme, sequence (P53341 whole entry): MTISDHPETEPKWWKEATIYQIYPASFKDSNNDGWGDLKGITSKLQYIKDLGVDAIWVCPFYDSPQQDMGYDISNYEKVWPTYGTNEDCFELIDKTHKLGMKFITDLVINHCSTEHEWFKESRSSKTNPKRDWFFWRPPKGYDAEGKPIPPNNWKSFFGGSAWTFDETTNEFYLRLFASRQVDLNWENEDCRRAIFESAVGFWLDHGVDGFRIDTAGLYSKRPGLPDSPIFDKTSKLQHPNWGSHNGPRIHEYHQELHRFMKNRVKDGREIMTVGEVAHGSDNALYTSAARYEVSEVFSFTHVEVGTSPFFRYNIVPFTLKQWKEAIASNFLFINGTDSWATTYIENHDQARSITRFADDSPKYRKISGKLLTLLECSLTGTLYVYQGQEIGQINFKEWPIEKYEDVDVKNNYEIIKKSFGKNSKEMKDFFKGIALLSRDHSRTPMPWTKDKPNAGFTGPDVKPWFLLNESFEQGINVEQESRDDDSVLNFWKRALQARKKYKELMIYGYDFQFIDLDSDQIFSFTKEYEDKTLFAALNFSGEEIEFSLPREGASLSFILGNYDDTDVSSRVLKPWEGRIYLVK

COc1cccc(/C(Cn2nnc3ccccc32)=N\N=C\c2cc(Cl)cc(Cl)c2O)c1 [Compound 1, 2-((E)-(((E)-2-(1H-benzo[d][1,2, 3]triazol-1-yl)-1-(3-methoxyphenyl)ethylidene) hydrazono)methyl)-4,6-dichlorophenol]
fold lower potency than compound (9) (α-glucosidase enzyme; comparator compound 9): four-fold
melting point: 195 to 196 °C

COc1cccc(/C(Cn2nnc3ccccc32)=N\N=C\c2cccc([N+](=O)[O-])c2)c1 [Compound 2, 1-((E)-2-(3-methoxyphenyl)-2-(((E)-3-nitrobenzylidene)hydrazono)ethyl)-1H-benzo[d] [1,2, 3]triazole]
fold lower potency than compound (12) (α-glucosidase enzyme; comparator compound 12): two-fold
melting point: 192 to 193 °C

O=[N+]([O-])c1cccc(/C=N/N=C(/Cn2nnc3ccccc32)c2ccc(Br)cc2)c1 [Compound 3, 1-((E)-2-(4-bromophenyl)-2-(((E)-3-nitrobenzylidene)hydrazono)ethyl)-1H-benzo[d] [1,2, 3]triazole]
melting point: 196 to 197 °C

Brc1ccc(/C(Cn2nnc3ccccc32)=N\N=C\c2c3ccccc3cc3ccccc23)cc1 [Compound 4, 1-((E)-2-(((E)-anthracen-9-ylmethylene)hydrazono)-2-(4-bromophenyl)ethyl)-1H-benzo[d] [1,2, 3]triazole]
potency against α-glucosidase compared with standard acarbose (in words) (α-glucosidase enzyme): less potent than standard acarbose
melting point: 201 to 202 °C

Oc1c(Cl)cc(Cl)cc1/C=N/N=C(/Cn1nnc2ccccc21)c1ccc(Br)cc1 [Compound 5, 2-((E)-(((E)-2-(1H-benzo[d][1,2, 3]triazol-1-yl)-1-(4-bromophenyl)ethylidene) hydrazono)methyl)-4,6-dichlorophenol]
fold lowering of enzymatic activity relative to scaffold (10) (α-glucosidase enzyme; comparator scaffold 10): four-fold
melting point: 196 to 197 °C

O=[N+]([O-])c1ccc(/C=N/N=C(/Cn2nnc3ccccc32)c2ccc(Br)cc2)cc1 [Compound 6, 1-((E)-2-(4-bromophenyl)-2-(((E)-4-nitrobenzylidene)hydrazono)ethyl)-1H-benzo[d] [1,2, 3]triazole]
potency relative to compound (3) (α-glucosidase enzyme; comparator compound 3): half
melting point: 196 to 197 °C

Brc1ccc(/C(Cn2nnc3ccccc32)=N\N=C\c2ccc3ccccc3c2)cc1 [Compound 7, 1-((E)-2-(4-bromophenyl)-2-(((E)-naphthalen-2-ylmethylene)hydrazono)ethyl)-1H-benzo[d] [1,2, 3]triazole]
potency against α-glucosidase compared with standard acarbose (in words) (α-glucosidase enzyme): less potent than standard acarbose
melting point: 196 to 197 °C

O=Cc1ccc(/C=N/N=C(/Cn2nnc3ccccc32)c2ccc(Br)cc2)cc1 [Compound 8, 4-((E)-(((E)-2-(1H-benzo[d][1,2, 3]triazol-1-yl)-1-(4-bromophenyl)ethylidene) hydrazono)methyl)benzaldehyde]
potency against α-glucosidase compared with standard acarbose (in words) (α-glucosidase enzyme): less potent than standard acarbose
melting point: 193 to 194 °C

O=[N+]([O-])c1cccc(/C(Cn2nnc3ccccc32)=N\N=C\c2cc(Cl)cc(Cl)c2O)c1 [Compound 9, 2-((E)-(((E)-2-(1H-benzo[d][1,2, 3]triazol-1-yl)-1-(3-nitrophenyl)ethylidene) hydrazono)methyl)-4,6-dichlorophenol]
potency relative to standard acarbose (fold greater) (α-glucosidase enzyme; compared to standard acarbose): nine-fold
melting point: 197 to 198 °C

O=[N+]([O-])c1ccc(/C(Cn2nnc3ccccc32)=N\N=C\c2cc(Cl)cc(Cl)c2O)cc1 [Compound 10, 2-((E)-(((E)-2-(1H-benzo[d][1,2, 3]triazol-1-yl)-1-(4-nitrophenyl)ethylidene) hydrazono)methyl)-4,6-dichlorophenol]
melting point: 197 to 198 °C

O=[N+]([O-])c1ccc(/C(Cn2nnc3ccccc32)=N\N=C\c2cccc([N+](=O)[O-])c2)cc1 [Compound 11, 1-((E)-2-(((E)-3-nitrobenzylidene)hydrazono)-2-(4-nitrophenyl)ethyl)-1H-benzo[d] [1,2, 3]triazole]
melting point: 191 to 192 °C

O=[N+]([O-])c1ccc(/C=N/N=C(/Cn2nnc3ccccc32)c2ccc([N+](=O)[O-])cc2)cc1 [Compound 12, 1-((E)-2-(((E)-4-nitrobenzylidene)hydrazono)-2-(4-nitrophenyl)ethyl)-1H-benzo[d] [1,2, 3]triazole]
inhibition profile relative to scaffold (11) (α-glucosidase enzyme; comparator scaffold 11): half
melting point: 191 to 192 °C

Oc1c(Cl)cc(Cl)cc1/C=N/N=C(/Cn1nnc2ccccc21)c1ccc(Cl)cc1Cl [Compound 13, 2-((E)-(((E)-2-(1H-benzo[d][1,2, 3]triazol-1-yl)-1-(2,4-dichlorophenyl)ethylidene) hydrazono)methyl)-4,6-dichlorophenol]
fold enhancement of α-glucosidase activity relative to compound (1) (α-glucosidase enzyme; comparator compound 1): three-fold
melting point: 199 to 200 °C

O=[N+]([O-])c1cccc(/C=N/N=C(/Cn2nnc3ccccc32)c2ccc(Cl)cc2Cl)c1 [Compound 14, 1-((E)-2-(2,4-dichlorophenyl)-2-(((E)-3-nitrobenzylidene)hydrazono)ethyl)-1H-benzo[d] [1,2, 3]triazole]
melting point: 194 to 195 °C

O=[N+]([O-])c1ccc(/C=N/N=C(/Cn2nnc3ccccc32)c2ccc(Cl)cc2Cl)cc1 [Compound 15, 1-((E)-2-(2,4-dichlorophenyl)-2-(((E)-4-nitrobenzylidene)hydrazono)ethyl)-1H-benzo[d] [1,2, 3]triazole]
melting point: 194 to 195 °C

Clc1ccc(/C=N/N=C(/Cn2nnc3ccccc32)c2ccc(Br)cc2)cc1Cl [Compound 17, 1-((E)-2-(4-bromophenyl)-2-(((E)-3,4-dichlorobenzylidene)hydrazono)ethyl)-1H-benzo[d] [1,2, 3]triazole]
potency against α-glucosidase compared with standard acarbose (in words) (α-glucosidase enzyme): less potent than standard acarbose
melting point: 198 to 199 °C

O=[N+]([O-])c1ccc(/C(Cn2nnc3ccccc32)=N\N=C\c2ccc(Cl)c(Cl)c2)cc1 [Compound 19, 1-((E)-2-(((E)-3,4-dichlorobenzylidene)hydrazono)-2-(4-nitrophenyl)ethyl)-1H-benzo[d] [1,2, 3]triazole]
melting point: 194 to 195 °C

O=[N+]([O-])c1ccc(/C(Cn2nnc3ccccc32)=N\N=C\c2ccc(O)cc2)cc1 [Compound 20, 4-((E)-(((E)-2-(1H-benzo[d][1,2, 3]triazol-1-yl)-1-(4-nitrophenyl)ethylidene) hydrazono)methyl)phenol]
melting point: 190 to 191 °C
